In patent US9649285B2, “Treatment of medium-chain acyl-CoA dehydrogenase deficiency” (UNIVERSITY OF PITTSBURGH—OF THE COMMONWEALTH SYSTEM OF …, priority 2012, dated 2017):
Numbering of substitutions follows the chain as printed.

How the values were obtained:
[1] = target: T1, partially purified recombinant human LCAD (Homo sapiens, UniProt P28330); assay: ETF fluorescence reduction assay with LCAD; type: biochemical
T1 construct: made in house
T1 sequence (P28330 31-430): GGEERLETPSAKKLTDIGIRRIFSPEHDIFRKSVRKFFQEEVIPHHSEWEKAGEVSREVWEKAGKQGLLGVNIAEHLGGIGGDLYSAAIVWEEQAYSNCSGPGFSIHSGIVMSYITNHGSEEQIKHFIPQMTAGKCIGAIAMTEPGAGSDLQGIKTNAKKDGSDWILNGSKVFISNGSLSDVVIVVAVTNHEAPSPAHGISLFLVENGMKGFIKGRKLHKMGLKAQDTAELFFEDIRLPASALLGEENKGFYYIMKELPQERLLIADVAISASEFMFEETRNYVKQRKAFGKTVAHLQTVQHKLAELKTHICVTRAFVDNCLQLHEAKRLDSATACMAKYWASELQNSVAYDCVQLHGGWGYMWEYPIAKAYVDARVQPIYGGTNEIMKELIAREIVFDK

[2] = target: T2, purified recombinant human MCAD (Homo sapiens, UniProt P11310); assay: Formation of the charge transfer complex (reductive half-reaction), absorbance at 447/570 nm; type: binding; details: Stockell plot, substrate:subunit ratio 1:1; enzyme 25.2 μM; anaerobic, pH 8.0; read-out: apparent dissociation constant (KD app)
T2 construct: made in house; host or cells: E. coli JM105, co-expressed with GroEL/GroES
T2 sequence (P11310 26-421): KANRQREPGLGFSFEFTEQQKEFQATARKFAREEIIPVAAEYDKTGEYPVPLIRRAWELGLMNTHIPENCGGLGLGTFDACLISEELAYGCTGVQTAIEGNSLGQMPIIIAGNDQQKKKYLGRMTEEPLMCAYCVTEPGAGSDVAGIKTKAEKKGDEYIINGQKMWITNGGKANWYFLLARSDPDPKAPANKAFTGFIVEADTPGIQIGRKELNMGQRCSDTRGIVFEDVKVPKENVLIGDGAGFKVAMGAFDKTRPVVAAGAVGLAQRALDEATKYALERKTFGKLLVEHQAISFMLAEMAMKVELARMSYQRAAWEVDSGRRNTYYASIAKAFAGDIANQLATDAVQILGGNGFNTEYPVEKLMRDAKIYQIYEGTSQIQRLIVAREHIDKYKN
Procedure: (§1) Purification of Recombinant Human MCAD.
(§2) Expression and purification of recombinant human MCAD was performed as previously described for isovaleryl-CoA dehydrogenase with minor modifications (18). E. coli JM105 cells (Amersham Biosciences Corp; Piscataway, N.J.) containing the human MCAD high expression vector pKeMCAD (19) and a GroEL/GroES expression plasmid were grown overnight in a 200-ml LB broth pre-culture that was used to inoculate 4×2-L cultures in 2-YT broth. The cells were left to grow overnight at 37° C. with shaking and MCAD expression was induced the next morning using IPTG at a final concentration of 0.5 mM for 3 hrs. Cells were harvested by centrifugation and resuspended at 4° C. in 2:1 weight to volume of 100 mM potassium phosphate pH 8.0, 150 mM EDTA. Cells were then lysed by sonication on ice. […]
Formation of the charge transfer ternary complex was monitored by observing the increase in absorbance at the 570 nm area, concomitant with the decrease of absorbance at 447 nm area, of the purified MCAD in 120 mM potassium phosphate spectrum under anaerobic conditions using a Jasco V-650 Spectrophotometer. […] Ten seconds of equilibration time were allowed after mixing and the sample was scanned for UV/Visible light absorbance at 250 to 800 nm. […] The “apparent” productive-binding constant (Kd app) was calculated with the following equation: […]

[3] = system: extracts from wild type fibroblast cells (GM085401); assay: ETF fluorescence reduction assay of cell extract, wild type fibroblasts; type: biochemical, human; details: 30 μM substrate
Procedure: (§3) Fibroblast Cell Culture and Extract Preparation.
(§4) Wild type and MCAD deficient cells (homozygous for the K304E mutation) with the designation GM085401 and GM07844, respectively, were obtained form Coriell Institute for Medical Research, Camden, N.J. Cells were cultured in DMEM medium supplemented with glutamine and ampicillin and streptomycin, and 20% fetal bovine serum. Cells were harvested from a T175 flask by sonication with a buffer consisting of 50 mM Tris buffer and 10 mM EDTA, pH 8.0. The cell debris was removed by centrifugation and the cell free extract was assayed for protein and enzyme activity as described below.
(§5) ETF Fluorescence Reduction Assay.
(§6) The ETF reduction assay was performed using a Jasco FP-6300 spectrofluorometer (Easton, Md.) with a cuvette holder heated with circulating water at 32° C. The assay was otherwise performed as described (22), at the indicated substrate concentrations. The enzyme was diluted 1200-fold into a buffer containing 50 mM Tris, pH 8.0, 5 mM EDTA and 50% glycerol, and […] were used for each assay. The ETF concentration in the reaction mixture was 2 μM. Spectra Manager 2 software (Jasco Inc) was used to collect data and calculate reaction rate and Microsoft Excel was used to calculate the kinetic parameters.

[4] = system: extract from fibroblast cells deficient in MCAD (GM07844, homozygous K304E); assay: ETF fluorescence reduction assay of cell extract, MCAD deficient fibroblasts; type: biochemical, human; details: similar amounts of extract
Procedure: as §3, §4, §5, §6

[5] = target: T3, MCAD K304E mutant (Homo sapiens, UniProt P11310, K329E); details: reported in ref. 27; cited from earlier work
T3 sequence (P11310 26-421 K329E): T2 sequence (P11310 26-421) with K304E

[6] = target: T4, recombinant human MCAD (Homo sapiens, UniProt P11310); assay: ETF fluorescence reduction assay with purified MCAD (oxidative half-reaction); type: biochemical
T4 construct: made in house; host or cells: E. coli JM105, co-expressed with GroEL/GroES
T4 sequence (P11310 26-421): T2 sequence (P11310 26-421)
Procedure: as §1
as §2, with “ice. Including high amounts of EDTA in the cell lysis buffer can protect residues with groups, e.g., cysteine thiols and methionine sulfide groups, vulnerable to modification by oxygen reactive species generated during sonication cell suspension. This was effective in improving enzyme preparations resulting higher specific activity and consistent kinetic behavior. Cellular debris was removed by centrifugation first at 250,000×g for 60 minutes each.” for “ice.”
(§7) ETF Fluorescence Reduction Assay. […]

[7] = target: T5, Purified SCAD (Homo sapiens, UniProt P16219); assay: ETF fluorescence reduction assay with SCAD; type: biochemical
T5 construct: made in house
T5 sequence (P16219 25-412): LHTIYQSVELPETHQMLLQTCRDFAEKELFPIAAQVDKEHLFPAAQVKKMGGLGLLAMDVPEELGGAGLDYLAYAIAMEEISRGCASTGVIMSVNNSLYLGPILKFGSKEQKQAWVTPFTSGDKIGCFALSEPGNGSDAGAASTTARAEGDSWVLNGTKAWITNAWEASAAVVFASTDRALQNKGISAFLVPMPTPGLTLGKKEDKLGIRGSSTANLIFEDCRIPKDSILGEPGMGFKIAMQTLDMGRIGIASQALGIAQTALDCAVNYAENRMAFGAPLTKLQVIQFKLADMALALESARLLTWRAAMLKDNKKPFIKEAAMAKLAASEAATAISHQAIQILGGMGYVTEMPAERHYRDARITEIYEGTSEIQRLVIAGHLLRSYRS
Procedure: as §2, with “ice. Including high amounts of EDTA in the cell lysis buffer can protect residues with groups, e.g., cysteine thiols and methionine sulfide groups, vulnerable to modification by oxygen reactive species generated during sonication cell suspension. This was effective in improving enzyme preparations resulting higher specific activity and consistent kinetic behavior. Cellular debris was removed by centrifugation first at 250,000×g for 60 minutes each. The final supernatant was dialyzed for 4 hours with vigorous stirring in 50 mM potassium phosphate pH 8.0, at 4° C.” for “ice.”
as §7

[8] = target: T6, Purified ACAD9 (Homo sapiens, UniProt Q9H845); assay: ETF fluorescence reduction assay with ACAD9; type: biochemical
T6 construct: made in house
T6 sequence (Q9H845 38-621): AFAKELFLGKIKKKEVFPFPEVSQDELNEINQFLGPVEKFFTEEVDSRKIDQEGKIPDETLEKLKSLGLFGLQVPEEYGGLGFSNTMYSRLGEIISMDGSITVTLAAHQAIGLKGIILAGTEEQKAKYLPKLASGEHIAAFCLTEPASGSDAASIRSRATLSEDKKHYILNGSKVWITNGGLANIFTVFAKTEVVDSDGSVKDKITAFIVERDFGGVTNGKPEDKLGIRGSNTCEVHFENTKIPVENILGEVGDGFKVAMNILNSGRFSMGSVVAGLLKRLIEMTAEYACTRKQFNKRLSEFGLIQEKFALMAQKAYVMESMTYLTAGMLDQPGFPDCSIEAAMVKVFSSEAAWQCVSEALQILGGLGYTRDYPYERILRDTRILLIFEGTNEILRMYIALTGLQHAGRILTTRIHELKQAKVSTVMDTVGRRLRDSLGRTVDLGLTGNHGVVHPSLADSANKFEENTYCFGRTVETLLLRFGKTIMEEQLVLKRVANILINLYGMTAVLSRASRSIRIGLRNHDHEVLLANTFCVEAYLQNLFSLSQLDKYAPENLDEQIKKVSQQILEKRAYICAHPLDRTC

Structure (SMILES) | activity of LCAD with substrate [1] | Kd [2] | activity of MCAD with substrate [6] | activity of SCAD with substrate [7] | activity of ACAD9 with substrate [8] | Enzyme specific activity [3] | Enzyme specific activity [4] | thermal stability of the MCAD K304E mutant [5]
CC(C)CCCC(C)C(=O)SCCNC(=O)CCNC(=O)[C@H](O)C(C)(C)COP(=O)(O)OP(=O)(O)OC[C@H]1O[C@@H](n2cnc3c(N)ncnc32)[C@H](O)[C@@H]1OP(=O)(O)O (stereo partly drawn) [2,6-dimethylheptanoyl-CoA] | active | – | – | – | – | – | – | –
CCCCCCCCCCCC(=O)SCCNC(=O)CCNC(=O)[C@H](O)C(C)(C)COP(=O)(O)OP(=O)(O)OC[C@H]1O[C@@H](n2cnc3c(N)ncnc32)[C@H](O)[C@@H]1OP(=O)(O)O [C12-CoA] | active | – | – | – | – | – | – | –
CCCCCCCCCCCCCCCC(=O)SCCNC(=O)CCNC(=O)[C@H](O)C(C)(C)COP(=O)(O)OP(=O)(O)OC[C@H]1O[C@@H](n2cnc3c(N)ncnc32)[C@H](O)[C@@H]1OP(=O)(O)O [palmitoyl-CoA] | – | – | – | – | – | 9.10 (±2.13) nmoles ETF reduced x min^−1 x mg^−1 | 3.91 (±1.34) nmoles ETF reduced x min^−1 x mg^−1 | –

Now from value to compound, other results behind:

activity of LCAD with substrate [1] | Kd [2] | activity of MCAD with substrate [6] | activity of SCAD with substrate [7] | activity of ACAD9 with substrate [8] | Structure (SMILES) | Enzyme specific activity [3] | Enzyme specific activity [4] | thermal stability of the MCAD K304E mutant [5]
– | 0.12 µM | – | – | – | CCCCCCCC(=O)SCCNC(=O)CCNC(=O)[C@H](O)C(C)(C)COP(=O)(O)OP(=O)(O)OC[C@H]1O[C@@H](n2cnc3c(N)ncnc32)[C@H](O)[C@@H]1OP(=O)(O)O [octanoyl-CoA] | 4.01 (±1.34) nmoles ETF reduced x min^−1 x mg^−1 | No activity | provide thermal stability
not active | 2.16 µM | no activity | no activity | no activity | CC(C)(COP(=O)(O)OP(=O)(O)OC[C@H]1O[C@@H](n2cnc3c(N)ncnc32)[C@H](O)[C@@H]1OP(=O)(O)O)[C@@H](O)C(=O)NCCC(=O)NCCSC(=O)CCCc1ccccc1 [phenylbutyryl-CoA] | 3.41 (±0.53) nmoles ETF reduced x min^−1 x mg^−1 | No activity | –
